Reference: article PMC4735261, “Identification of DYRK1B as a substrate of ERK1/2 and characterisation of the kinase activity of DYRK1B mutants from cancer and metabolic syndrome” (Cellular and Molecular Life Sciences: CMLS, 2015)

Target: T1, DYRK1B (Homo sapiens, UniProt Q9Y463)
T1 construct: Recombinant DYRK1B expressed in insect cells (Carna Biosciences)
Assay: in vitro enzyme assay; MRM mass spectrometry of autophosphorylation sites
Type: biochemical

T1 sequence (Q9Y463 whole entry): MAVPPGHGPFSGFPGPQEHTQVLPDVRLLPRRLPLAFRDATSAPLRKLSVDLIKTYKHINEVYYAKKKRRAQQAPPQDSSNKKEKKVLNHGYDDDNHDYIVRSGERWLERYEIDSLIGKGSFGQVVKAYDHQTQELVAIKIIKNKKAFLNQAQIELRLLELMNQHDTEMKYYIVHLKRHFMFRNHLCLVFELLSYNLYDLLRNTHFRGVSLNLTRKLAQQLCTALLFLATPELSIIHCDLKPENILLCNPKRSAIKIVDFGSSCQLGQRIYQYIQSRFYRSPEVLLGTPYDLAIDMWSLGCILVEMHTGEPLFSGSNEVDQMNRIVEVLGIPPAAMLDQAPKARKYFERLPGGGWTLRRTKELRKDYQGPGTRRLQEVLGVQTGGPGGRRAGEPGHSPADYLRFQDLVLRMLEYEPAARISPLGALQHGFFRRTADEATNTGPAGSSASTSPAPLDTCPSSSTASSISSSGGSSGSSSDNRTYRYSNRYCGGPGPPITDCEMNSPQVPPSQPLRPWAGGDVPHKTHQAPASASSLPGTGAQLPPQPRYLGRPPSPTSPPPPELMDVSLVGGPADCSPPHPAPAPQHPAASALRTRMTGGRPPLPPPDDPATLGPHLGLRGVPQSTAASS

With AZ’294 the IC50 was < 30 nM.
